Assay results reported in patent US11572399B2, “Long-acting GIP peptide analogues” (University of Copenhagen, priority 2017, dated 2023).
pIC50: −log10 of the molar value. Peptide text beside a SMILES is read from it. * marks the point of attachment. C16 diacid = O=C(O)CCCCCCCCCCCCCCC(=O)*; Palmitoyl = CCCCCCCCCCCCCCCC(=O)*

Assays:
[1] = target: T1, human GIP receptor (Homo sapiens, UniProt P48546); assay: cAMP accumulation assay, antagonism of a GIP-mediated cAMP response (50-80% of max); type: cell-based; conditions: for Fold change of IC50 versus GIP(5-30)NH2: fold change of IC50 from GIP(5-30)NH2; for IC50: transiently transfected COS-7 cells, Table 1 and text, read-out: cAMP antagonism nM (IC50, antagonistic potency)
T1 construct: host or cells: COS-7, transient transfection (calcium phosphate), cDNA in pCMV-Script
T1 sequence (P48546 22-466): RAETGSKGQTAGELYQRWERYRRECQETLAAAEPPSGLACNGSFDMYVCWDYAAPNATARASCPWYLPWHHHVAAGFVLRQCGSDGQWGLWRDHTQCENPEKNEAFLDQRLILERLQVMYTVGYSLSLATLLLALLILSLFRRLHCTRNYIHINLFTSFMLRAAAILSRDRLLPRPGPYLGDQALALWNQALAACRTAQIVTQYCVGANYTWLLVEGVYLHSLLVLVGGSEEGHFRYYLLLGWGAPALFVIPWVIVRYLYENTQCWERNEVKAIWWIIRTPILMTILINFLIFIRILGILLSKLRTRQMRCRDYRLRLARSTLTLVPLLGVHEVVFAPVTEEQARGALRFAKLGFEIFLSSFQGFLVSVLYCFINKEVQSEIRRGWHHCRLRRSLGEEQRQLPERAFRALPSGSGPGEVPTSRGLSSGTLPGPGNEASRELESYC
Experimental: The day after, the cells were washed twice with Hepes buffered saline (HBS) buffer and incubated with HBS and 1 mM 3-isobutyl-1-methylxanthine (IBMX) for 30 min at 37° C. […] The HitHunter™ cAMP XS assay (DiscoveRx) was carried out according to the manufacturer's instructions.

[2] = target: T1, human GIP receptor; assay: 125I-human GIP competition binding assay, in the presence and absence of 2% HSA; conditions: for Fold change HSA (2%)/Casein (0.1%): IC50 (plus HSA)/IC50 (minus HSA); for Binding (+/−HSA) Fold: fold change +HSA/−HSA; for Ki: presence of 2% HSA; for Fold change in affinity, IC50 (plus HSA)/IC50 (minus HSA): presence vs absence of 2% HSA, proxy for albumin binding;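 for all read-outs here: nonspecific binding taken as radioligand bound to untransfected cells, IC50 obtained from nonlinear regression fits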
Experimental: Transient transfection of the COS-7 cells for cAMP accumulation and competition binding was performed using the calcium phosphate precipitation method with the addition of chloroquine^46-47.
Transient transfected COS-7 cells expressing the human GIP receptor were seeded in clear 96-well plates the day after transfection using a number of cells/well that obtained 5-10% specific binding of the added radioactive ligand. The following day, cells were assayed by competition binding for 3 h at 4° C. using 15-40 pM 125 I-human GIP as well as increasing concentrations unlabeled ligand in 50 mM Hepes buffer (pH 7.2) in the presence and absence of 2% HSA. After incubation, the cells were washed twice in ice-cold binding buffer (+/−2% HSA) and lysed using 200 mM NaOH with 1% SDS for 30 min. Nonspecific binding was determined as the binding of radioactive ligand to untransfected cells.
IC50, EC50, and Ki values were determined by nonlinear regression. […] Ki values were based on the formula for one class of binding sites in homologous competition binding studies and the Cheng Prussoffs formula, respectively (DeBlasi et al., 1989). To determine the HSA binding potential, the fold change in affinity (as determined by IC50) was calculated as IC50 (plus HSA)/IC50 (minus HSA).

[3] = target: T1, human GIP receptor; assay: cAMP accumulation assay, agonism (ligand alone); type: cell-based; conditions: COS-7 cells, Table 1; for Emax: COS-7, intrinsic cAMP activity; for EC50: read-out: cAMP agonism nM (EC50)
[4] = binding in 0.1% casein (absence of HSA), log value, read-out: logIC50 0.1% casein (converted)
[5] = heterologous competition binding, transiently transfected COS-7 cells expressing the human GIP receptor, read-out: Binding

| SMILES | Fold change of IC50 versus GIP(5-30)NH2 [1] | Fold change HSA (2%)/Casein (0.1%) [2] | IC50 [2, 4] [nM] | Binding (+/−HSA) Fold [2] | Ki [2] [nM] | Emax [3] [%] | Ability to antagonize the GIP-mediated cAMP response (in words) [1] | Affinity compared to GIP(3-30)NH2 (in words) [2] | Fold change in affinity, IC50 (plus HSA)/IC50 (minus HSA) [2] [fold] | EC50 [3] [nM] | IC50 [1] [nM] | IC50 ([2]; binding in presence of 2% HSA, read-out: logIC50 2% HSA (converted)) [nM] | pIC50 [2, 5] | pIC50 ([1]; antagonism of GIP-mediated cAMP response, COS-7 cells, read-out: cAMP accumulation IC50) | cAMP - antagonisme fold (paired) ([1]; fold vs GIP(3-30)NH2, Table 3b) [fold] | pIC50 ([2]; Table 3b, initial data, read-out: Binding IC50) | Binding fold (paired) ([2]; fold decrease in affinity compared to GIP(3-30)NH2, Table 3b) [fold] | cAMP agonism Emax ([3]; intrinsic cAMP activity) |
| --- | --- | --- | --- | --- | --- | --- | --- | --- | --- | --- | --- | --- | --- | --- | --- | --- | --- | --- |
| CC[C@H](C)[C@H](NC(=O)[C@H](CO)NC(=O)[C@H](Cc1ccc(O)cc1)NC(=O)[C@H](CC(=O)O)NC(=O)[C@H](CCCCNC(=O)CCCCCCCCCCCCCCC(=O)O)NC(=O)[C@@H](NC(=O)[C@H](Cc1ccccc1)NC(=O)[C@@H](N)[C@@H](C)O)[C@@H](C)CC)C(=O)N[C@@H](C)C(=O)N[C@@H](CCSC)C(=O)N[C@@H](CC(=O)O)C(=O)N[C@@H](CCCCN)C(=O)N[C@H](C(=O)N[C@@H](Cc1c[nH]cn1)C(=O)N[C@@H](CCC(N)=O)C(=O)N[C@@H](CCC(N)=O)C(=O)N[C@@H](CC(=O)O)C(=O)N[C@@H](Cc1ccccc1)C(=O)N[C@H](C(=O)N[C@@H](CC(N)=O)C(=O)N[C@@H](Cc1c[nH]c2ccccc12)C(=O)N[C@@H](CC(C)C)C(=O)N[C@@H](CC(C)C)C(=O)N[C@@H](C)C(=O)N[C@@H](CCC(N)=O)C(=O)N[C@@H](CCCCN)C(N)=O)C(C)C)[C@@H](C)CC [AT170, [hGIP(5-30)NH2[S8K]-C16diacid/8]] (H-TFIK(C16 diacid)DYSIAMDKIHQQDFVNWLLAQK-NH2; N-terminus assumed) | 32.4 | 2.2 | 631 | 2.2 | 1300 | 0 |  |  |  |  |  |  |  |  |  |  |  |  |
| CC[C@H](C)[C@H](NC(=O)[C@H](CO)NC(=O)[C@H](Cc1ccc(O)cc1)NC(=O)[C@H](CC(=O)O)NC(=O)[C@H](CO)NC(=O)[C@@H](NC(=O)[C@H](Cc1ccccc1)NC(=O)[C@@H](NC(=O)CCCCCCCCCCCCC(=O)O)[C@@H](C)O)[C@@H](C)CC)C(=O)N[C@@H](C)C(=O)N[C@@H](CCSC)C(=O)N[C@@H](CC(=O)O)C(=O)N[C@@H](CCCCN)C(=O)N[C@H](C(=O)N[C@@H](Cc1c[nH]cn1)C(=O)N[C@@H](CCC(N)=O)C(=O)N[C@@H](CCC(N)=O)C(=O)N[C@@H](CC(=O)O)C(=O)N[C@@H](Cc1ccccc1)C(=O)N[C@H](C(=O)N[C@@H](CC(N)=O)C(=O)N[C@@H](Cc1c[nH]c2ccccc12)C(=O)N[C@@H](CC(C)C)C(=O)N[C@@H](CC(C)C)C(=O)N[C@@H](C)C(=O)N[C@@H](CCC(N)=O)C(=O)N[C@@H](CCCCN)C(N)=O)C(C)C)[C@@H](C)CC [AT136, [hGIP(5-30)NH2—C14diacid/5]] |  | 15.7 | 50.1 |  |  | 20 | high potent antagonists | affinities in the same range as GIP(3-30)NH2 | 15.7 | 8 |  |  |  |  |  |  |  |  |
| CC[C@H](C)[C@H](NC(=O)[C@H](CO)NC(=O)[C@H](Cc1ccc(O)cc1)NC(=O)[C@H](CC(=O)O)NC(=O)[C@H](CO)NC(=O)[C@H](CCCCNC(=O)CCCCCCCCCCCCCCC(=O)O)NC(=O)[C@H](Cc1ccccc1)NC(=O)[C@@H](N)[C@@H](C)O)C(=O)N[C@@H](C)C(=O)N[C@@H](CCSC)C(=O)N[C@@H](CC(=O)O)C(=O)N[C@@H](CCCCN)C(=O)N[C@H](C(=O)N[C@@H](Cc1c[nH]cn1)C(=O)N[C@@H](CCC(N)=O)C(=O)N[C@@H](CCC(N)=O)C(=O)N[C@@H](CC(=O)O)C(=O)N[C@@H](Cc1ccccc1)C(=O)N[C@H](C(=O)N[C@@H](CC(N)=O)C(=O)N[C@@H](Cc1c[nH]c2ccccc12)C(=O)N[C@@H](CC(C)C)C(=O)N[C@@H](CC(C)C)C(=O)N[C@@H](C)C(=O)N[C@@H](CCC(N)=O)C(=O)N[C@@H](CCCCN)C(N)=O)C(C)C)[C@@H](C)CC [AT169, [hGIP(5-30)NH2[I7K]-C16diacid/7]] | 3.0 | 5.8 | 31.6 | 4.8 | 126 | 0 |  |  | 5.8 |  | 37 | 166 | 7.55 |  |  |  |  |  |
| CC[C@H](C)[C@H](NC(=O)[C@H](CO)NC(=O)[C@H](Cc1ccc(O)cc1)NC(=O)[C@H](CC(=O)O)NC(=O)[C@H](CO)NC(=O)[C@@H](NC(=O)[C@H](Cc1ccccc1)NC(=O)[C@@H](NC(=O)CCCCCCCCCCCCCCC(=O)O)[C@@H](C)O)[C@@H](C)CC)C(=O)N[C@@H](C)C(=O)N[C@@H](CCSC)C(=O)N[C@@H](CC(=O)O)C(=O)N[C@@H](CCCCN)C(=O)N[C@H](C(=O)N[C@@H](Cc1c[nH]cn1)C(=O)N[C@@H](CCC(N)=O)C(=O)N[C@@H](CCC(N)=O)C(=O)N[C@@H](CC(=O)O)C(=O)N[C@@H](Cc1ccccc1)C(=O)N[C@H](C(=O)N[C@@H](CC(N)=O)C(=O)N[C@@H](Cc1c[nH]c2ccccc12)C(=O)N[C@@H](CC(C)C)C(=O)N[C@@H](CC(C)C)C(=O)N[C@@H](C)C(=O)N[C@@H](CCC(N)=O)C(=O)N[C@@H](CCCCN)C(N)=O)C(C)C)[C@@H](C)CC [AT137, [hGIP(5-30)NH2—C16diacid/5]] | 3.7 | 1.9 | 316 | 2.0 | 117 | 12 | high potent antagonists | affinities in the same range as GIP(3-30)NH2 |  | 18 | 182 |  | 6.54 | 6.99 |  |  |  |  |
| CCCCCCCCCCCCCCCC(=O)NCCCC[C@H](NC(=O)[C@H](CCC(=O)O)NC(=O)[C@H](CCSC)NC(=O)[C@H](C)NC(=O)[C@@H](NC(=O)[C@H](CO)NC(=O)[C@H](Cc1ccc(O)cc1)NC(=O)[C@H](CC(=O)O)NC(=O)[C@H](CO)NC(=O)[C@@H](NC(=O)[C@H](Cc1ccccc1)NC(=O)[C@H](Cc1c[nH]c2ccccc12)NC(=O)CNC(=O)[C@@H](N)CCC(=O)O)[C@@H](C)CC)[C@@H](C)CC)C(=O)N[C@H](C(=O)N[C@@H](C)C(=O)N[C@@H](CCC(N)=O)C(=O)N[C@@H](CCC(N)=O)C(=O)N[C@@H](CC(=O)O)C(=O)N[C@@H](Cc1ccccc1)C(=O)N[C@H](C(=O)N[C@@H](CC(N)=O)C(=O)N[C@@H](Cc1c[nH]c2ccccc12)C(=O)N[C@@H](CC(C)C)C(=O)N[C@@H](CC(C)C)C(=O)N[C@@H](C)C(=O)N[C@@H](CCC(N)=O)C(=O)N[C@@H](CCCCN)C(N)=O)C(C)C)[C@@H](C)CC [AT107, [hGIP(3-30)NH2[T5W; D15E; H18A]-C16/16]] (H-EGWFISDYSIAMEK(Palmitoyl)IAQQDFVNWLLAQK-NH2; N-terminus assumed) |  |  |  |  |  | 23 |  |  |  | 1300 |  |  | 5.28 |  | 3.1 | 5.28 | 186 |  |
| CCCCCCCCCCCCCCCC(=O)N[C@H](C(=O)N[C@@H](Cc1ccccc1)C(=O)N[C@H](C(=O)N[C@@H](CO)C(=O)N[C@@H](CC(=O)O)C(=O)N[C@@H](Cc1ccc(O)cc1)C(=O)N[C@@H](CO)C(=O)N[C@H](C(=O)N[C@@H](C)C(=O)N[C@@H](CCSC)C(=O)N[C@@H](CC(=O)O)C(=O)N[C@@H](CCCNC(=N)N)C(=O)N[C@H](C(=O)N[C@@H](CCCCN)C(=O)N[C@@H](CCC(N)=O)C(=O)N[C@@H](CCC(N)=O)C(=O)N[C@@H](CC(=O)O)C(=O)N[C@@H](Cc1ccccc1)C(=O)N[C@H](C(=O)N[C@@H](CC(N)=O)C(=O)N[C@@H](Cc1c[nH]c2ccccc12)C(=O)N[C@@H](CC(C)C)C(=O)N[C@@H](CC(C)C)C(=O)N[C@@H](C)C(=O)N[C@@H](CCC(N)=O)C(=O)N[C@@H](CCCNC(=N)N)C(N)=O)C(C)C)[C@@H](C)CC)[C@@H](C)CC)[C@@H](C)CC)[C@@H](C)O [AT133, [hGIP(5-30)NH2[K16R; H18K; K30R]-C16/5]] (Palmitoyl-TFISDYSIAMDRIKQQDFVNWLLAQR-NH2) |  | 1.3 | 1580 |  |  | 0 | failed to antagonize |  |  |  |  |  | 5.76 |  |  |  |  |  |
| CC[C@H](C)[C@H](NC(=O)[C@H](CO)NC(=O)[C@H](Cc1ccc(O)cc1)NC(=O)[C@H](CC(=O)O)NC(=O)[C@H](CO)NC(=O)[C@@H](NC(=O)[C@H](Cc1ccccc1)NC(=O)[C@@H](NC(=O)CNC(=O)[C@@H](N)CCC(=O)O)[C@@H](C)O)[C@@H](C)CC)C(=O)N[C@@H](C)C(=O)N[C@@H](CCSC)C(=O)N[C@@H](CC(=O)O)C(=O)N[C@@H](CCCCNC(=O)CCCCCCCCCCCCCCC(=O)O)C(=O)N[C@H](C(=O)N[C@@H](Cc1c[nH]cn1)C(=O)N[C@@H](CCC(N)=O)C(=O)N[C@@H](CCC(N)=O)C(=O)N[C@@H](CC(=O)O)C(=O)N[C@@H](Cc1ccccc1)C(=O)N[C@H](C(=O)N[C@@H](CC(N)=O)C(=O)N[C@@H](Cc1c[nH]c2ccccc12)C(=O)N[C@@H](CC(C)C)C(=O)N[C@@H](CC(C)C)C(=O)N[C@@H](C)C(=O)N[C@@H](CCC(N)=O)C(=O)N[C@@H](CCCCN)C(N)=O)C(C)C)[C@@H](C)CC [AT370, [hGIP(3-30)NH2—C16diacid/16]] |  |  |  |  |  |  |  |  |  |  | 25 |  |  |  |  |  |  | no ag. |
